# Assay results reported in patent US20260167656A1, “PHOSPHORAMIDATE COMPOUNDS AND USES THEREOF” (ALLORION THERAPEUTICS INC, priority 2022, published 2026).
# What was measured:
# [1] = tested on: non-small cell lung cancer cell line H460; assay: In vitro human cancer cell line cytotoxicity (proliferation) assay in H460, CellTiter-Glo, 72 hours; assay type: cell-based; details: DMSO condition (no AKR1C3 inhibitor), read-out: CTG H460: Avg IC50 (nM) [Assay Condition: DMSO]
# Experimental: Biological Example 1. In Vitro Human Cancer Cell Line Cytotoxicity Assay
# IC50 values in nanomolar reported here were derived from in vitro proliferation assay data in non-small cell lung cancer cell line H460.
# (§1) Specifically, exponentially growing cells were seeded at density of 3×10^3 cells per well in 96-well plate and incubated at 37° C. in 5% CO2, 95% air and 100% relative humidity for 24 hours before adding compounds. Compounds were solubilized in 100% DMSO at 10 mM. Compounds were added to the plate using Tecan D300e® digital Dispenser. After drug addition, the plates were incubated for an additional 72 hours at 37° C. in 5% CO2, 95% air and 100% relative humidity. At the end of the incubation, cell viability was quantified with CellTiter-Glo® assay.
# [2] = tested on: non-small cell lung cancer cell line H460; assay: H460 proliferation assay in the presence of 3 uM ASP9521 (AKR1C3 specific inhibitor); assay type: cell-based, human; details: H460 cells, CellTiter-Glo, 72 hours, in the presence of 3 uM ASP9521 added 4 hours prior to compounds; read-out: CTG H460: Avg IC50 (nM) [Assay Condition: ASP9521]
# Experimental: as §1
# To further confirm that compounds were activated by human AKR1C3, H460 proliferation assay were also performed in the presence of 3 uM […], an AKR1C3 specific inhibitor. ASP9521 were added to the plates 4 hours prior to the addition of compounds.
# [3] = Homo sapiens, NCI-H460, 72 h, H460 cells
SMILES,"IC50 ([1]; Homo sapiens, NCI-H460, H460 cells)",IC50 [2],IC50 ([1]; H460 cells),"IC50 [1, 3]"
Cn1cnc2cc(Oc3c([N+](=O)[O-])ccc4c3CC[C@@H]4OP(=O)(N3CC3)N3CC3)ccc21 [Example 396],10 to 50 nM,2480 nM,,
O=C(c1cccc(Oc2c([N+](=O)[O-])ccc3c2CCC3OP(=O)(N2CC2)N2CC2)c1)N1CCCC1 (centres unmarked) [Example 240],,1150 nM,,
CC(OP(=O)(N1CC1)N1CC1)c1cc2cc(Oc3cccc(C(=O)N4CCC(F)(F)CC4)c3)c([N+](=O)[O-])cc2o1 (centres unmarked) [Example 548],,2140 nM,< 10 nM,
O=C1c2ccc(Oc3c([N+](=O)[O-])ccc4c3CCC4OP(=O)(N3CC3)N3CC3)cc2CN1C1CC1 (centres unmarked) [Example 57],,219 nM,< 10 nM,
"O=[N+]([O-])c1ccc2c(c1Oc1ccc(F)c(-n3cccn3)c1)CC[C@@H]2OP(=O)(N1CC1)N1CC1 (single isomer, unassigned) [Example 403]",,1460 nM,,< 10 nM
COc1ccc(Oc2c([N+](=O)[O-])ccc3c2CC[C@@H]3OP(=O)(N2CC2)N2CC2)cc1OCC1CC1 [Example 502],,546 nM,,< 10 nM
C[C@@H]1CN1P(=O)(OCc1ccc([N+](=O)[O-])c(Oc2cccc(C(=O)N(C)C)c2)c1)N1C[C@H]1C (some centres unmarked) [Example 208],,184 nM,,< 10 nM
COc1cc(Oc2c([N+](=O)[O-])ccc3c2CC[C@@H]3OP(=O)(N2CC2)N2CC2)cc(-c2ccc(F)cn2)c1 [Example 353],,1010 nM,,< 10 nM
O=[N+]([O-])c1ccc2c(c1Oc1ccc(-c3ccccc3)nc1)CCC2OP(=O)(N1CC1)N1CC1 (centres unmarked) [Example 50],,335 nM,,< 10 nM
O=[N+]([O-])c1ccc2c(c1Oc1cccc(-c3ccnn3CC(F)F)c1)CC[C@@H]2OP(=O)(N1CC1)N1CC1 [Example 367],,321 nM,,< 10 nM
Cn1ncc(F)c1-c1cccc(Oc2c([N+](=O)[O-])ccc3c2CCC3OP(=O)(N2CC2)N2CC2)c1 (centres unmarked) [Example 373],,672 nM,< 10 nM,
O=[N+]([O-])c1ccc2c(c1Oc1cccc(OC3CCCC3)c1)CC[C@@H]2OP(=O)(N1CC1)N1CC1 [Example 469],,1130 nM,< 10 nM,
O=[N+]([O-])c1ccc2c(c1Oc1cccc(-c3cnn(C4CC4)c3)c1)CCC2OP(=O)(N1CC1)N1CC1 (centres unmarked) [Example 95],,1310 nM,50 to 100 nM,
COc1ccc(-c2ccc(Oc3cc4c(cc3[N+](=O)[O-])CCC4OP(=O)(N3CC3)N3CC3)cc2)cc1 (centres unmarked) [Example 184],,2640 nM,,10 to 50 nM
Cc1nc2cc(Oc3c([N+](=O)[O-])ccc4c3CCC4OP(=O)(N3CC3)N3CC3)ccc2n1C (centres unmarked) [Example 388],,1430 nM,,< 10 nM
O=[N+]([O-])c1ccc2c(c1Oc1ccc(F)c(-n3cc(F)cn3)c1)CC[C@@H]2OP(=O)(N1CC1)N1CC1 [Example 421],,1400 nM,,< 10 nM
"O=[N+]([O-])c1ccc2c(c1Oc1ccc(-c3ncc(F)cn3)c(F)c1)CC[C@@H]2OP(=O)(N1CC1)N1CC1 [Example 268, (S)-4-(3-fluoro-4-(5-fluoropyrimidin-2-yl)phenoxy)-5-nitro-2,3-dihydro-1H-inden-1-yl di(aziridin-1-yl)phosphinate]",,1110 nM,,< 10 nM
CC(C)(C)c1cncc(Oc2c([N+](=O)[O-])ccc3c2CCC3OP(=O)(N2CC2)N2CC2)c1 (racemic) [Example 324],,445 nM,< 10 nM,
"COc1ccc(Oc2c([N+](=O)[O-])ccc3c2CC[C@@H]3OP(=O)(N2CC2)N2CC2)cc1-c1ncccn1 [Example 294, (S)-4-(4-methoxy-3-(pyrimidin-2-yl)phenoxy)-5-nitro-2,3-dihydro-1H-inden-1-yl di(aziridin-1-yl)phosphinate]",,1080 nM,,< 10 nM
Cc1ncn(-c2cccc(Oc3c([N+](=O)[O-])ccc4c3CC[C@@H]4OP(=O)(N3CC3)N3CC3)c2)n1 [Example 500],,1300 nM,,< 10 nM
C[C@H](OP(=O)(N1CC1)N1CC1)c1cc2cc(Oc3cccc(-c4ccccn4)c3)c([N+](=O)[O-])cc2o1 [Example 554],,6070 nM,< 10 nM,
"Cn1cc(-c2cccc(Oc3c([N+](=O)[O-])ccc4c3CCC4OP(=O)(N3CC3)N3CC3)c2)cn1 (single isomer, unassigned) [Example 76]",,1120 nM,,10 to 50 nM
"O=C1c2cc(Oc3c([N+](=O)[O-])ccc4c3CC[C@H]4OP(=O)(N3CC3)N3CC3)ccc2CN1C1CC1 (single isomer, unassigned) [Example 38]",,537 nM,,< 10 nM
"O=[N+]([O-])c1ccc2c(c1Oc1ccc(-c3ncc(F)cn3)cc1)CC[C@@H]2OP(=O)(N1CC1)N1CC1 (single isomer, unassigned) [Example 265]",,1300 nM,,< 10 nM
CN(C(=O)c1cccc(Oc2c([N+](=O)[O-])ccc3c2CCC3OP(=O)(N2CC2)N2CC2)c1)c1cnn(C)c1 (racemic) [Example 251],,1090 nM,< 10 nM,

SMILES,"IC50 ([1]; Homo sapiens, NCI-H460, H460 cells)",IC50 [2],IC50 ([1]; H460 cells),"IC50 [1, 3]"
"O=[N+]([O-])c1cc2c(cc1Oc1ccc(-c3ccccc3)cc1)C(OP(=O)(N1CC1)N1CC1)CC2 (single isomer, unassigned) [Example 152]",,1400 nM,,< 10 nM
O=[N+]([O-])c1cc2c(cc1Oc1ccc(-c3ccncc3)cc1)C(OP(=O)(N1CC1)N1CC1)CC2 (centres unmarked) [Example 198],,2230 nM,,< 10 nM
O=[N+]([O-])c1ccc2c(c1Oc1ccc(F)c(-n3cncn3)c1)CC[C@@H]2OP(=O)(N1CC1)N1CC1 [Example 438],,416 nM,,< 10 nM
O=[N+]([O-])c1ccc2c(c1Oc1cccc(-n3cc(C(F)F)cn3)c1)CC[C@@H]2OP(=O)(N1CC1)N1CC1 [Example 432],,4170 nM,,< 10 nM
O=[N+]([O-])c1ccc2c(c1Oc1cccc(-n3cc(F)cn3)c1)CCC2OP(=O)(N1CC1)N1CC1 (centres unmarked) [Example 83],,1170 nM,< 10 nM,
Cc1noc(-c2cccc(Oc3c([N+](=O)[O-])ccc4c3CCC4OP(=O)(N3CC3)N3CC3)c2)n1 (centres unmarked) [Example 304],,2130 nM,,
CCOc1cc(Oc2c([N+](=O)[O-])ccc3c2CC[C@@H]3OP(=O)(N2CC2)N2CC2)ccc1F [Example 493],,341 nM,,< 10 nM
"O=C(NC1CC1)c1ccc(Oc2cc3c(cc2[N+](=O)[O-])CCC3OP(=O)(N2CC2)N2CC2)cc1 (single isomer, unassigned) [Example 172]",,4900 nM,,10 to 50 nM
O=[N+]([O-])c1ccc2c(c1Oc1cccc(-n3ccc(F)n3)c1)CC[C@@H]2OP(=O)(N1CC1)N1CC1 [Example 444],,192 nM,,< 10 nM
O=[N+]([O-])c1cc2c(cc1Oc1ccc(-c3ccc(Cl)cc3)cc1)C(OP(=O)(N1CC1)N1CC1)CC2 (centres unmarked) [Example 182],,> 10000 nM,≥ 100 nM,
O=C1OCCN1c1cccc(Oc2c([N+](=O)[O-])ccc3c2CCC3OP(=O)(N2CC2)N2CC2)c1 (centres unmarked) [Example 407],,380 nM,,
O=C1CCCN1c1cccc(Oc2c([N+](=O)[O-])ccc3c2CCC3OP(=O)(N2CC2)N2CC2)c1 (centres unmarked) [Example 111],,1100 nM,,< 10 nM
O=C1COCCN1c1cccc(Oc2c([N+](=O)[O-])ccc3c2CCC3OP(=O)(N2CC2)N2CC2)c1 (racemic) [Example 405],,871 nM,,
O=C(c1cccc(Oc2c([N+](=O)[O-])ccc3c2CCC3OP(=O)(N2CC2)N2CC2)c1)N1CCC(F)(F)C1 (centres unmarked) [Example 239],,1060 nM,,
O=C(c1cccc(Oc2c([N+](=O)[O-])ccc3c2CCC3OP(=O)(N2CC2)N2CC2)c1)N1CC(F)(F)C1 (centres unmarked) [Example 235],,717 nM,,
"Cn1cc(-c2ccc(Oc3cc4c(cc3[N+](=O)[O-])CCC4OP(=O)(N3CC3)N3CC3)cc2)cn1 (single isomer, unassigned) [Example 521]",,1950 nM,,
O=[N+]([O-])c1ccc2c(c1Oc1cccc(-c3ncccn3)c1)CCC2OP(=O)(N1CC1)N1CC1 (centres unmarked) [Example 301],,3730 nM,,
O=C1CCCN1c1cccc(Oc2c([N+](=O)[O-])ccc3c2CCC3OP(=O)(N2CC2)N2CC2)c1 (centres unmarked) [Example 413],,1180 nM,,
O=C(c1cccc(Oc2c([N+](=O)[O-])ccc3c2CCC3OP(=O)(N2CC2)N2CC2)c1)N1CCC(F)(F)CC1 (centres unmarked) [Example 244],,834 nM,,
O=C1CCCCN1c1cccc(Oc2c([N+](=O)[O-])ccc3c2CCC3OP(=O)(N2CC2)N2CC2)c1 (racemic) [Example 404],,1020 nM,,
O=c1ccccn1-c1cccc(Oc2c([N+](=O)[O-])ccc3c2CCC3OP(=O)(N2CC2)N2CC2)c1 (racemic) [Example 406],,1320 nM,,
O=C1COCCN1c1cccc(Oc2c([N+](=O)[O-])ccc3c2CCC3OP(=O)(N2CC2)N2CC2)c1 (centres unmarked) [Example 411],,,10 to 50 nM,
O=C(c1cccc(Oc2c([N+](=O)[O-])ccc3c2CCC3OP(=O)(N2CC2)N2CC2)c1)N1CCC1 (centres unmarked) [Example 246],,522 nM,,
O=C(c1cccc(Oc2c([N+](=O)[O-])ccc3c2CCC3OP(=O)(N2CC2)N2CC2)c1)N1CCC(F)(F)C1 (centres unmarked) [Example 242],,1270 nM,,
